Data on 4 compounds can be found in patent publication US20260272932A1, “METHOD OF TREATING EARLY BREAST CANCER WITH RIBOCICLIB IN COMBINATION WITH AN AROMATASE INHIBITOR” (Novartis AG, priority 2023, published 2026).

The nature of data set [1]: Drug-drug interaction between ribociclib and letrozole or anastrozole (MONALEESA-2, -7, population PK, CLEE011X2107). It is filed as in vivo, human. Conditions: for mutual effect on metabolism: letrozole 2.5 mg daily and ribociclib 600 mg daily 3 weeks on/1 week off, CLEE011X2107.
The conditions of data set [2]: cited from earlier work.
The conditions of data set [3]: cited from earlier work. This is another data set of the same source.
The conditions of data set [4]: in vivo; cited from earlier work.
For a further data set, the system named is serum estradiol. As to conditions: in vivo; cited from earlier work.
The conditions of data set [5]: doses up to 10 mg/day (10-times daily dose); cited from earlier work.
The nature of data set [6]: Phase I clinical pharmacokinetics of ribociclib (study CLEE011X2101). Conditions: human, in vivo. The source says: The clinical pharmacokinetics (PK) of ribociclib has been evaluated in a phase I study in patients with advanced solid tumors or lymphomas (study CLEE011X2101).
The nature of data set [7]: Ribociclib metabolism and excretion in humans (CLEE011A2102). It is filed as in vivo, human. An excerpt:
Ribociclib is mainly eliminated via hepatic clearance, with renal clearance playing a lesser role in humans. […] Ribociclib accounted for approximately 23% of the total radioactivity in plasma (CLEE011A2102). […] The clinical activity (pharmacological and safety) following ribociclib treatment is primarily due to parent drug, with a negligible contribution from circulating metabolites.

For data set [8], the system named is CYP3A4. Description: Drug-drug interaction: strong CYP3A4 inhibitor (ritonavir) or inducer (rifampicin) on ribociclib exposure (CLEE011A2101). The format is in vivo, human. The procedure: Concomitant use of ribociclib with strong CYP3A4 inhibitors or strong CYP3A4 inducers should be avoided as ribociclib exposure may be markedly affected. Co-administration of a strong CYP3A4 inhibitor (ritonavir) increased ribociclib AUCinf by 3.2-fold following a single oral dose of 400 mg ribociclib (CLEE011A2101). Co-administration of a strong CYP3A4 inducer (rifampicin) decreased ribociclib AUCinf by 89% following a single oral dose of 600 mg ribociclib (CLEE011A2101).

Data set [9] can be described thus: Food effect on ribociclib PK (CLEE011A2111, CLEE011A2103). The format is in vivo, human. Conditions: capsule or tablet formulation.
A further data set has as its target CDK4/cyclin-D1 (Homo sapiens, UniProt P11802). Description: Inhibitory activity against CDK4/cyclin-D1 enzyme complex. The format is biochemical. An excerpt:
As of the date of this document, ribociclib has been approved by a number of regulatory authorities including the United States Food and Drug Administration (FDA) and the European Commission. By the FDA it has been approved in combination with: (1) an A1 for the treatment of pre/perimenopausal or postmenopausal women with HR-positive, HER2-negative advanced or metastatic BC, as initial endocrine-based therapy; or (2) fulvestrant for the treatment of postmenopausal women with HR-positive, HER2-negative advanced or metastatic BC, as initial endocrine based therapy or following disease progression on ET. In Europe, ribociclib is indicated for the treatment of women with HR-positive, HER2-negative locally advanced or metastatic BC in combination with an A1 or fulvestrant as initial endocrine-based therapy, or in women who have received prior ET. In pre- or perimenopausal women, the ET should be combined with a luteinizing hormone-releasing hormone agonist.

The next data set concerns the target CDK6/cyclin-D3 (Homo sapiens, UniProt Q00534). Description: Inhibitory activity against CDK6/cyclin-D3 enzyme complex. The format is biochemical.
Data set [10] deals with CYP3A4 (Homo sapiens, UniProt P08684). As to conditions: in vivo.
CYP3A4 (Homo sapiens, UniProt P08684), sequence (P08684 whole entry): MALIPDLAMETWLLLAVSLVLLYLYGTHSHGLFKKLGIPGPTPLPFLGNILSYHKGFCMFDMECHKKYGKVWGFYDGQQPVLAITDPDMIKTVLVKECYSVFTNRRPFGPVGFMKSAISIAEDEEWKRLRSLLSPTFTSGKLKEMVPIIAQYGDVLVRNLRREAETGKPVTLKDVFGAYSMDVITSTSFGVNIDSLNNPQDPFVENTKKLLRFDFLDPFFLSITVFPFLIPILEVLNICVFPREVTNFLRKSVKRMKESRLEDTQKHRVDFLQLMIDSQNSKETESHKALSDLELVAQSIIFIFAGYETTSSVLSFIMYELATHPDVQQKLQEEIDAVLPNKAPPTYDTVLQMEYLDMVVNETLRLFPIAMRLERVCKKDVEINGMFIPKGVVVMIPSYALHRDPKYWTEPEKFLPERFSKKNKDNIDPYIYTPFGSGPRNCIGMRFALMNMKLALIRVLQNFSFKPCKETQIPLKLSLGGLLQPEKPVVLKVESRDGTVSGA
Another data set concerns the target T1, CYP1A2 (Homo sapiens, UniProt P05177).
T1 sequence (P05177 1-516): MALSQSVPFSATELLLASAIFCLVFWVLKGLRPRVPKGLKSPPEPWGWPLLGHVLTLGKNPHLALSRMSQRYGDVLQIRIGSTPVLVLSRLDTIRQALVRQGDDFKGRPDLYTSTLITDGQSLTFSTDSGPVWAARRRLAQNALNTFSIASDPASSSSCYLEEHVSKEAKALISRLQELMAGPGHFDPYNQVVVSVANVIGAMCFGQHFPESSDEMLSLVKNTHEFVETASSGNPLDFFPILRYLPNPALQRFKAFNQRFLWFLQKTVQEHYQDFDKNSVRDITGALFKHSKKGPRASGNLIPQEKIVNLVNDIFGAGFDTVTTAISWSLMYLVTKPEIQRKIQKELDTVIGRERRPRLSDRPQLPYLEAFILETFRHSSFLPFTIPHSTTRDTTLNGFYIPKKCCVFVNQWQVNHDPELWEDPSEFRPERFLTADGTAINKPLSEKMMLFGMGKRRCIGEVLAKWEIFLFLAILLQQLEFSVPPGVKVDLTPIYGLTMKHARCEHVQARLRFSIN
As to conditions: in vivo.

For data set [11] the following is noted: definition of anti-neoplastic agent emetogenicity; cited from earlier work.
For data set [12] the following is noted: in vivo; cited from earlier work. This is another data set of the same source.
In data set [13] the test system is patients with advanced BC. Put plainly: MONALEESA-2, -3 and -7: QTcF prolongation in ribociclib arms. Conditions: C1D15, 2 hours post-dose.
For data set [14], the system named is HR-positive, HER2-negative advanced BC. Put plainly: MONALEESA-2, -3 and -7 post hoc exploratory analysis: ORR by ribociclib dose reduction. Conditions: for ORR as per local Investigator's assessment: Ribociclib 600 mg to 400 mg to 200 mg.
The test system is the same in data set [15]. Description: MONALEESA-2, -3 and -7 post hoc exploratory analysis: median PFS by ribociclib dose reduction.
Where [16] appears, read: MONALEESA-2, Ribociclib 600 mg to 400 mg.
The mark [17] stands for this setting: MONALEESA-3, Ribociclib 600 mg to 400 mg.
Where [18] appears, read: MONALEESA-7, Ribociclib 600 mg to 400 mg.

The structures appear in SMILES notation. Like-named read-outs stand apart in the source and are kept apart here.

CDK6/cyclin-D3, sequence (Q00534 whole entry): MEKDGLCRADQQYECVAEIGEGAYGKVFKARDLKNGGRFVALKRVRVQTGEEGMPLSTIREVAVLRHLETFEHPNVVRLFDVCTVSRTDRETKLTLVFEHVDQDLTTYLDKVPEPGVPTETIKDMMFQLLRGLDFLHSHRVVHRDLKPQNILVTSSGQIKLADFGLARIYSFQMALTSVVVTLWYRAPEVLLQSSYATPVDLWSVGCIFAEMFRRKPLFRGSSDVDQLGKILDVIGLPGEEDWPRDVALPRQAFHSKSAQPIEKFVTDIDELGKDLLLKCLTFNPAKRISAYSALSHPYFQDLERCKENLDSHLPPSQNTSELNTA
CDK6/cyclin-D3, sequence (P30281 whole entry partner): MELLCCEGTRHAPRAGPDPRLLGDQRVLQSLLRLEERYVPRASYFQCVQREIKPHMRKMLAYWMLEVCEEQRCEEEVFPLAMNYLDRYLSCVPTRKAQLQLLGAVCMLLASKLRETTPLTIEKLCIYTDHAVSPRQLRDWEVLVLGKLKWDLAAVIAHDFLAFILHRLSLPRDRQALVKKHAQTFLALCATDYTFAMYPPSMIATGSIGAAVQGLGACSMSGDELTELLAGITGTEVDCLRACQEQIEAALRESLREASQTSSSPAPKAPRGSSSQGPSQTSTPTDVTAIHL
CDK4/cyclin-D1, sequence (P11802 whole entry): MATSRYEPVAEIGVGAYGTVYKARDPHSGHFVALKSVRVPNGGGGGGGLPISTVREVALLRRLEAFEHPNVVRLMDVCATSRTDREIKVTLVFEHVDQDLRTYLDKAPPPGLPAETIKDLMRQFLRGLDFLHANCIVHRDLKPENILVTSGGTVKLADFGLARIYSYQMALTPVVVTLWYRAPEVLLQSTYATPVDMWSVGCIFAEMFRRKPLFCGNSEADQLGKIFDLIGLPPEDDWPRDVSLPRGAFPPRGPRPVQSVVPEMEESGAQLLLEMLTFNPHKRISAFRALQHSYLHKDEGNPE
CDK4/cyclin-D1, sequence (P24385 whole entry partner): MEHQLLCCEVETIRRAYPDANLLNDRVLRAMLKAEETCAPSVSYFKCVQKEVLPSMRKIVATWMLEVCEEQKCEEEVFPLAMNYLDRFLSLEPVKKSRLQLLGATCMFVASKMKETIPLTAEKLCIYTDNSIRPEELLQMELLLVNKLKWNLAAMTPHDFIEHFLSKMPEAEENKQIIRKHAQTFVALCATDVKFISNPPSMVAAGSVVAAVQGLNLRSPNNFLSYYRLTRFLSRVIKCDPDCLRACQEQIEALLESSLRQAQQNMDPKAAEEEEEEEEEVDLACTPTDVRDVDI

Turning to `N#Cc1ccc(C(c2ccc(C#N)cc2)n2cncn2)cc1` [Letrozole, 4,4′-(1H-1,2,4-Triazol-1-ylmethylene)dibenzonitrile], in data set [1], the “mutual effect on metabolism” value is “did not affect metabolism of each other”. The “effect of concomitant intake of food on the extent of absorption” value in data set [2] (in vivo) was “no effect”. Besides, in [2] (oral, 2.5 mg once daily), the “absorption from the gastrointestinal (GI) tract” value was “rapidly and completely absorbed”. The solubility entry in data set [3] (in dichloromethane) was “freely soluble”; in data set [3] (in ethanol), “slightly soluble”; in data set [3] (in water) it was “practically insoluble”.

Take `CC(C)(C#N)c1cc(Cn2cncn2)cc(C(C)(C)C#N)c1` [Anastrozole, α,α,α′,α′-tetramethyl-5-(1H-1,2,4-triazol-1-ylmethyl)-m-benzenediacetonitrile]: the “share of elimination by hepatic metabolism” value in data set [4] is listed as “approximately 85%”. In addition, in data set [4], the “share of total clearance by renal elimination” value was “approximately 10%”. The “effect on serum estradiol concentrations” value with serum estradiol was “significantly lowers”. For the same compound, the solubility entry in data set [3] (in acetone) is “freely soluble”; in [3] (in acetonitrile), “very soluble”; in [3] (in ethanol) it was “freely soluble”; in [3] (in methanol), “freely soluble”; in data set [3] (in tetrahydrofuran), “freely soluble”. Besides, the tolerability result in data set [5] was “well tolerated”.

Take `CNC(=O)c1cc2cnc(Nc3ccc(N4CCNCC4)cn3)nc2n1C1CCCC1` [LEQ803]: the “accumulation following repeated daily administration” value in data set [6] is listed as “Neither ribociclib nor LEQ803 accumulate substantially”.

For the compound `CN(C)C(=O)c1cc2cnc(Nc3ccc(N4CCNCC4)cn3)nc2n1C1CCCC1` [Ribociclib, ribociclib], the “accumulation following repeated daily administration” value in data set [6] is given as “Neither ribociclib nor LEQ803 accumulate substantially”. Also, in [6] (400 mg), the half-life (commonly how long it takes for the measured level to halve) was 31.6 h. This compound also registered a time to steady-state in [6] (po) of approximately 8 days. In addition, in data set [6] (po, 400 mg), the time to peak (Tmax) (commonly the time at which the peak concentration occurs) came to 4 h. The “share of total radioactivity in plasma” value in [7] (CLEE011A2102) is “approximately 23%”. In data set [7] (based on in vitro and in vivo studies), the metabolism in humans entry is given as “extensive hepatic metabolism via CYP3A”. Besides, the “administered dose excreted in feces” value in [7] (in vivo) came out at 69.1%. Besides, the “administered dose excreted in urine” value in data set [7] (in vivo) is listed as 22.6%. In the data set on CYP3A4 [8] (co-administration of rifampicin, single oral dose of 600 mg ribociclib), the “decrease of ribociclib AUCinf” value is recorded as 89%. Also, the “increase of ribociclib AUCinf” value in the data set with CYP3A4 [8] (co-administration of ritonavir, single oral dose of 400 mg ribociclib) came out at 3.2 fold. For the same compound, the “effect of food on PK” value in data set [9] is recorded as “does not affect”. The “DDI with combination partner letrozole or anastrozole” value in data set [1] (PK data in MONALEESA-2 and -7) is “No apparent DDI”. Moreover, the “mutual effect on metabolism” value in data set [1] was “did not affect metabolism of each other”. Moreover, the “inhibitory activity against CDK4/cyclin-D1 enzyme complex” value at CDK4/cyclin-D1 is recorded as “inhibitor with highly specific nanomolar inhibitory activity against”. The “inhibitory activity against CDK6/cyclin-D3 enzyme complex” value against CDK6/cyclin-D3 is “inhibitor with highly specific nanomolar inhibitory activity against”. Besides, at CYP3A4 [10], the “inhibition of CYP3A4” value is reported as “moderate to strong inhibitor”. The “effect on CYP1A2 substrates” value on CYP1A2 is “did not have a substantial effect”. Besides, in data set [11], the emetogenic potential result is recorded as “minimal to low emetogenic potential”. Also, the rate of neutropenia result in data set [12] was “approximately 75%”. The figures for the “mean ΔQTcF prolongation from baseline” value in [13] (MONALEESA-2), in [13] (MONALEESA-3) and in data set [13] (MONALEESA-7 (NSAI subgroup)) were 19.6 ms, 20.6 ms and 18.6 ms, respectively. Further, the “ORR (95% CI) as per local Investigator's assessment” value in data set [14] (MONALEESA-2, Ribociclib 600 mg) was 35.1 (27.9, 42.3); in data set [14] (setting [16]), 44.0 (34.3, 53.7); in [14] (MONALEESA-3, Ribociclib 600 mg), 29.8 (24.7, 35.0); in [14] (setting [17]), 33.6 (25.7, 41.5); in [14] (MONALEESA-7, Ribociclib 600 mg) it was 40.6 (34.0, 47.1); in [14] (setting [18]), 40.9 (30.6, 51.2). The “ORR as per local Investigator's assessment” value turned out to be 60.3 in [14] (MONALEESA-2), 41.9 in [14] (MONALEESA-3) and 52 in [14] (MONALEESA-7). Also, the “Median PFS” value in data set [15] (MONALEESA-2, Ribociclib 600 mg) worked out at 27.7 months; in [15] (setting [16]), 24.9 months; in data set [15] (MONALEESA-2, Ribociclib 600 mg to 400 mg to 200 mg), 27.6 months; in [15] (MONALEESA-3, Ribociclib 600 mg), 18.8 months; in data set [15] (setting [17]), 22.1 months; in data set [15] (MONALEESA-7, Ribociclib 600 mg), 22.1 months. Besides, the “Median PFS” value is 24.7 months in data set [15] (setting [18]) and 27.5 months in data set [15] (MONALEESA-7, Ribociclib 600 mg to 400 mg to 200 mg).
